Source: patent US20240051997A1, “SAP AND PEPTIDOMIMETIC COMPOSITIONS FOR REDUCING SYMPTOMS OF INFLAMMATION” (Arch Biosurgery, Inc., priority 2018, published 2024)

Experiments:
Human THP-1 cells = assay: Cytokine release by THP-1 cells stimulated with RADA-16 or LPS (PROTEOME PROFILER Array); assay type: cell-based
Experimental: The anti-inflammatory effect of a SAP was examined using an in vitro assay to assess cytokine release by human THP-1 cells in the presence of SAP. Measurement of THP-1 cell activation in response to antigen was assessed by cytokine release.
Human THP-1 cells in culture media (1×10^6 cells in 1 ml of Culture medium) were exposed to the self-assembling peptide RADARADARADARADA (“RADA-16”; SEQ ID NO: 1), at a concentration of 1 μg/well, 10 μg/well, or 100 μg/well.
Human THP-1 cells in the absence of RADA-16 were used as a control to assess the baseline level of cytokine production in “resting” non-actived THP-1 cells.
To assess cytokine release upon THP-1 cell activation, lipopolysaccharides (LPS) from Salmonella typhimurium (catalog no. L-7261; Sigma-Aldrich, St. Louis, MO) were added to THP-1 cells, at a concentration of 1 μg/ml.
The release of cytokines in response to exposure of THP-1 cells to RADA-16 (SEQ ID NO: 1) or LPS was measured using the PROTEOME PROFILER™ Array kit, commercially available as a test strip kit for detection of cytokines in solution (R&D Systems, Inc., Catalog Number ARY005). The assay was carried out according to the manufacturer's guide lines.

[1] = tested on: liver inflammation, ED-1 reactivity (macrophage activation); assay: Rat liver injury model (punch biopsy), ED-1 immunohistochemistry; assay type: in vivo, Sprague-Dawley rat; settings: 4 mm punch biopsy, all time-points observed, compared to saline or acid controls
Experimental: The anti-inflammatory effects of EARA-16 (SEQ ID NO: 89) and RADA-16 (SEQ ID NO: 1) SAPs were examined using a liver injury model. Levels of inflammation were assayed through immuno-histochemical ED-1 reactivity (ED-1 serves as a marker of macrophage activation).
Pigs or adult Sprague-Dawley rats were anesthetized and their intraperitoneal cavities were opened under aseptic conditions. For each animal, the liver was exposed and then subjected to an 8 mm (pig) or 4 mm (rat) punch biopsy.
The punch sites were then cauterized or treated with acid (for pH control), saline, or RADA-16 (SEQ ID NO: 1) or EARA-16 (SEQ ID NO: 89) solutions. The animals were allowed to survive for up to 14 days. The animals were then sacrificed and their livers were harvested and sectioned. An ED-1 antibody was used to determine the level of inflammation and activation of macrophages in the liver via immunohistochemistry (IHC).

## RADARADARADARADA [RADA-16, self-assembling peptide]
Human THP-1 cells; 1 mcg (1 μg/well) RADA-16
  C5a (Complement Component 5a) release: 0
  CD40 Ligand (CD154) release: 0
  G-CSF (CSF −, CSF-3) release: 0
  GM-CSF (CSF |, CSF-2) release: 0
  GRO | (CXCL1) release: 0
  I-309 (CCL1) release: 0
  I-TAC (CXCL11) release: 0
  IFN-• (Type II IFN) release: 0
  IL-1 alpha (IL-1F1) release: 0
  IL-1 beta (IL-1F2) release: 0
  IL-1ra (IL-1F3) release: 22.59
  IL-2 release: 0
  IL-4 release: 0
  IL-5 release: 0
  IL-6 release: 0
  IL-8 (CXCL8) release: 0
  IL-10 release: 0
  IL-12 p 70 release: 0
  IL-13 release: 0
  IL-16 (LCF) release: 0
  IL-17E release: 0
  IL-17 release: 0
  IL-23 release: 0
  IL-27 release: 0
  IL-32 release: 0
  IP-10 (CXCL10) release: 0
  MCP-1 (CCL2) release: 0
  MIP-1 | (CCL3) release: 0
  MIP-1− (CCL4) release: 0
  SDF-1 (CXCL12) release: 0
  TNF- | (TNFSF2) release: 0
  sICAM-1 (CD54) release: 0
  sTREM-1 release: 0
Human THP-1 cells; 10 mcg (10 μg/well) RADA-16
  C5a (Complement Component 5a) release: 0
  CD40 Ligand (CD154) release: 0
  G-CSF (CSF −, CSF-3) release: 0
  GM-CSF (CSF |, CSF-2) release: 0
  GRO | (CXCL1) release: 0
  I-309 (CCL1) release: 0
  I-TAC (CXCL11) release: 0
  IFN-• (Type II IFN) release: 0
  IL-1 alpha (IL-1F1) release: 0
  IL-1 beta (IL-1F2) release: 0
  IL-1ra (IL-1F3) release: 0
  IL-2 release: 0
  IL-4 release: 0
  IL-5 release: 0
  IL-6 release: 0
  IL-8 (CXCL8) release: 0
  IL-10 release: 0
  IL-12 p 70 release: 0
  IL-13 release: 0
  IL-16 (LCF) release: 0
  IL-17E release: 0
  IL-17 release: 0
  IL-23 release: 0
  IL-27 release: 0
  IL-32 release: 0
  IP-10 (CXCL10) release: 0
  MCP-1 (CCL2) release: 0
  MIP-1 | (CCL3) release: 0
  MIP-1− (CCL4) release: 0
  SDF-1 (CXCL12) release: 0
  TNF- | (TNFSF2) release: 0
  sICAM-1 (CD54) release: 0
  sTREM-1 release: 0
Human THP-1 cells; 100 mcg (100 μg/well) RADA-16
  C5a (Complement Component 5a) release: 0
  CD40 Ligand (CD154) release: 0
  G-CSF (CSF −, CSF-3) release: 0
  GM-CSF (CSF |, CSF-2) release: 0
  GRO | (CXCL1) release: 0
  I-309 (CCL1) release: 0
  I-TAC (CXCL11) release: 0
  IFN-• (Type II IFN) release: 0
  IL-1 alpha (IL-1F1) release: 0
  IL-1 beta (IL-1F2) release: 0
  IL-1ra (IL-1F3) release: 0
  IL-2 release: 0
  IL-4 release: 0
  IL-5 release: 0
  IL-6 release: 0
  IL-8 (CXCL8) release: 0
  IL-10 release: 0
  IL-12 p 70 release: 0
  IL-13 release: 0
  IL-16 (LCF) release: 0
  IL-17E release: 0
  IL-17 release: 0
  IL-23 release: 0
  IL-27 release: 0
  IL-32 release: 0
  IP-10 (CXCL10) release: 0
  MCP-1 (CCL2) release: 0
  MIP-1 | (CCL3) release: 0
  MIP-1− (CCL4) release: 0
  SDF-1 (CXCL12) release: 0
  TNF- | (TNFSF2) release: 0
  sICAM-1 (CD54) release: 0
  sTREM-1 release: 0
Human THP-1 cells; resting THP-1 cells, 1, 10 or 100 μg/well, no LPS
  induction of cytokine release relative to baseline: did not induce cytokine release beyond baseline levels
[1]
  levels of inflammation in liver (ED-1 IHC): markedly reduced the levels of inflammation
